Experimental data: patent US6706762B1, “Methods for the use of inhibitors of co-repressors for the treatment of neoplastic diseases” (The Salk Institute for Biological Studies, priority 1997, dated 2004)

Columns and labels:
[1] = tested on: myeloid leukemia (HL-60) cells; assay: Differentiation of HL-60 cells, CD14 and CD11b expression by flow cytometry; assay type: cell-based, human; settings: 72 hours
Procedure: If HDAC is a critical component of receptor function then addition of a deacetylase inhibitor, such as Trichostatin A (TSA) (Taunton et al., Science 272:408-411 (1996)) would be expected to relieve transcriptional repression, resulting in a promoter that is likely to be more sensitive to the addition of hormone. This prediction was tested by studying the effect of TSA on the differentiation of myeloid leukemia (HL-60) cells (Collins, Blood 70:1233-1244 (1987)) following a high dose ( 100 nM) 9-cis RA treatment. A hallmark of this process is the appearance of cell surface differentiation markers CD14 and CD11b (Brackman et al., Leukemia Research 19:57-64 (1995)). HL-60 cells cultured in RPMI 10% FBS were plated at a density of 2×10^5/ml in RPMI 2% FBS treated with 9-cis RA (Sigma) and/or Trichostatin A (TSA) (Waco Pure Chemical Industries) for 72 hours and then incubated with R-phycoerythrin (RPE) conjugated anti-human C3bi receptor (CD11b) (DAKO) or RPE-conjugated monoclonal mouse anti-human CD 14 (DAKO) antibodies for 60 minutes on ice. Cells were washed twice with PBS 0.5% BSA and analyzed on a FACScan flow cytometer (Becton Dickinson). The expression of cell surface antigens (CD11b and CD14) were monitored.

[2] = biological target: T1, RARα / GST-SMRT-IDII (Homo sapiens, UniProt P10276); assay: GST-SMRT-IDII affinity matrix, binding of radiolabelled RARα; settings: presence of 5 μM ATRA
T1 construct: made in house; host or cells: 35S-labelled receptor (in vitro translation); GST-SMRT from E. coli DH5a or BL-21
T1 sequence (P10276 1-462): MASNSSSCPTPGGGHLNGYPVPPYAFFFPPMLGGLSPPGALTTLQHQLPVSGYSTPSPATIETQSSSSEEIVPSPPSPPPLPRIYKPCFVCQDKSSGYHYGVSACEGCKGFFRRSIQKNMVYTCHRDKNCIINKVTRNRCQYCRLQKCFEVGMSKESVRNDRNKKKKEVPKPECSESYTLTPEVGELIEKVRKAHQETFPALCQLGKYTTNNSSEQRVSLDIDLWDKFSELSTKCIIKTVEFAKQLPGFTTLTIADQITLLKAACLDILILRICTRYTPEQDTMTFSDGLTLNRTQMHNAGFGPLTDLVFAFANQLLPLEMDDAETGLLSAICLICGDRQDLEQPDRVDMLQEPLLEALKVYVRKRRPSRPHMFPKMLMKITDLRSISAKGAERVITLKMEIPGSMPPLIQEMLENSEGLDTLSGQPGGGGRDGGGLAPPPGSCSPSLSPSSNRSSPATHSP
Procedure: (§1) Recombinant proteins were obtained as follows and in vitro protein interaction assays were carried out as follows. GST-PLZF and GST-SMRT fusion proteins were produced from E. Coli DH5a or BL-21 cells and purified by glutathione-Sepharose 4B affinity chromatography. Bound proteins were eluted with 15 mM glutathione. Purified proteins were then reloaded on glutathione-Sepharose 4B beads and used as affinity matrices. Protein interaction assays were performed in G buffer (20 mM Tris, 7.9, 150 mM KCl, 1 mM EDTA, 4 mM MgCl2, 0.26 NP-40, 10% Glycerol) at 4° C. for 60 min with gentle rocking. The beads were washed five times with G buffer and bounded proteins were eluted in SDS sample buffer, separated by SDS-PAGE and visualized by autoradiography.

[3] = tested on: SMRT associated with PLZF-RARα; assay: Immunoprecipitation of HA-PLZF-RARα from CV1 cell extracts, immunoblot for SMRT; assay type: cell-based; settings: ATRA (5 μM), 4° C. overnight
Procedure: (§2) For in vitro immunoprecipitation, in vitro translated proteins were incubated together with 10 μg/μl anti-HA antibody in G buffer at 4° C. for 60 min. Immunocomplexes were isolated by incubation with protein A-agarose, washed four times with G buffer, analyzed by SDS-PAGE and visualized by autoradiography. For in vivo immunoprecipitation, 2×10^7 CV1 cells were transfected with 10 μg of appropriate plasmids and harvested in ice-cold PBS, 24 hours after transfection. Cells were lysed by hypotonic shock and the nuclear pellet was resuspended in IP buffer (PBS, 10 mM NaF, 25 mM β-glycerolphosphate, 0.1% NP-40, 0.5 mM PMSF plus protease inhibitors) and disrupted by mild sonication.
(§3) Immunocomplexes were resolved by SDS-PAGE and analyzed by immunoblotting.

[4] = biological target: T2, SMRT associated with RARα (Homo sapiens, UniProt P10276); assay: Immunoprecipitation of HA-RARα from CV1 cell extracts, immunoblot for SMRT; assay type: cell-based; settings: ATRA (5 μM), 4° C. overnight
T2 construct: HA-RARα (amino acids 61-462); expressed in transfected cells; host or cells: CV1 cells
T2 sequence (P10276 61-462): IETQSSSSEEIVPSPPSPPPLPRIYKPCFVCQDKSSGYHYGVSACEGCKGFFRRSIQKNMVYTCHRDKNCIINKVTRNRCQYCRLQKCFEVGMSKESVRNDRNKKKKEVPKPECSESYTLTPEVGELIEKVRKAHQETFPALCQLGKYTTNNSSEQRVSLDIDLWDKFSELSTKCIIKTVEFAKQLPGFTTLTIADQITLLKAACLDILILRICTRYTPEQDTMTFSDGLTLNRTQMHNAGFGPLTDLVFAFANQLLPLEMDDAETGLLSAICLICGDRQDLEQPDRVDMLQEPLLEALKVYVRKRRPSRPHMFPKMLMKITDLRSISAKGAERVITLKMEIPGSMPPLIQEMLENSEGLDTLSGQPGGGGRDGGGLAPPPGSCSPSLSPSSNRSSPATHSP
Procedure: as §2, §3

[5] = biological target: T3, RARα / SMRT (Homo sapiens, UniProt P10276); assay: GST-SMRT (amino acids 1,073-1,330) affinity matrix, radiolabelled RARα; assay type: binding; settings: ATRA
T3 construct: made in house; host or cells: in vitro translated receptor; GST-SMRT from E. coli
T3 sequence (P10276 1-462): T1 sequence (P10276 1-462)

[6] = tested on: SMRT / DNA-bound PML-RARα; assay: Gel mobility shift assay, GST-SMRT-IDII with PML-RARα homodimers on DR5 elements; assay type: binding; settings: compared with RARα/RXRα heterodimers
Source text: The protein-DNA complexes were then resolved on a 4.5% native polyacrylamide gel and visualized by autoradiography.

[7] = tested on: PML-RARα expressing HL-60 cells; settings: Rousselot et al. (1994); cited from earlier work
[8] = tested on: PLZF-RARα / GST-SMRT-PID2; assay: GST-SMRT-PID2 affinity matrix, binding of radiolabelled PLZF-RARα; settings: presence or absence of 5 μM ATRA
Procedure: as §1

[9] = tested on: PLZF-RARα / GST-SMRT-IDII; assay: GST-SMRT-IDII affinity matrix, binding of radiolabelled PLZF-RARα; settings: presence of 5 μM ATRA
Procedure: as §1

[10] = tested on: GAL-PLZF-RARα; assay: GAL-PLZF-RARα activation of UAS reporter, transient transfection in CV1 cells; assay type: cell-based; settings: for reporter activation in combination with ATRA: TSA 150 nM or NaB 5 mM plus ATRA; for reporter activation in combination with ATRA / relief of repression by GAL-PLZF-RARα: 16 hours; for relief of repression by GAL-PLZF-RARα: TSA 150 nM or NaB 5 mM
Procedure: (§4) GAL4-DBD fusions of RARα or PLZF-RARα were transfected into CV1 cells and examination of their RA-activation on UAS reporters. CV1 cells were transfected using DOTAP transfection reagents (Boehringer Mannheim). Luciferase activity of each sample was normalized against internal control β-galactosidase activity (Nagy et al. (1997) Cell 89:373-380). Each transfection was carried out in triplicate and repeated at least three times.

[11] = tested on: PML-RARα/SMRT complex; assay: GST-SMRT (amino acids 1,073-1,330) affinity matrix, radiolabelled PML-RARα; assay type: binding; settings: ATRA
[12] = tested on: NB4 cells; assay: Nitroblue Tetrazolium (NBT) reduction differentiation assay in NB4 cells; assay type: cell-based, human; settings: three days
Procedure: (§5) This prediction was tested utilizing the NB4 cell line established from a patient with t(15;17) APL. NB4, NB4-R4 (Shao et al. (1997) Blood 89:4282-4289), HL-60 and HL-60R (Robertson et al. (1992) Blood 80:1885-1889) cells were cultured in RPMI with 10% FBS. […] Differentiation assays with RA and/or TSA were carried out as previously described (Nagy et al. (1997) Cell 89:373-380). NBT assay has been described (Nagy et al. (1995) Mole. Cell. Biol. 15:3540-3551).

[13] = tested on: PLZF-RARα; assay: TK-βRARE×2-Luc reporter, transcriptional inhibition by PLZF-RARα in CV1 cells; assay type: cell-based; settings: NaB 5 mM, 100 nM ATRA
Procedure: as §4
(§6) It was then sought to determine whether similar effects can be seen on native RA-response elements. As shown previously, exogenous expression of PLZF-RARα or PML-RARα inhibits RA-activation mediated by endogenous RARs on βRARE reporters (FIG. 6(C); de Thé et al. (1991) Cell 66:675-684; Kastner et al. (1992) EMBO J. 11:629-642; Chen et al. (1994) Proc. Natl Acad. Sci. USA 91:1178-1182; Licht et al. (1996) Oncogene 12:323-336; Rousselot et al. (1994) Oncogene 9:545-551).

[14] = tested on: PML-RARα; assay: TK-βRARE×2-Luc reporter, transcriptional inhibition by PML-RARα in CV1 cells; assay type: cell-based; settings: NaB 5 mM, 100 nM ATRA
Procedure: as §4, §6

[15] = tested on: NB4 cells; assay: CD18 expression in NB4 cells by flow cytometry; assay type: cell-based, human; settings: TSA plus 9-cis RA, three days
Procedure: as §5
For flow cytometry analysis of CD18 expression, the cells were incubated with a FITC-conjugated anti-CD18 antibody (DAKO) in a dilution of 1:500 in PBS (0.5% BSA) followed by extensive washing before analyzing on a FACSCAN flow cytometer (Becton Dickinson). Although histone deacetylase inhibitors are known to have pleiotropic effects on global gene expression, the fact that CD18 is a direct retinoid target gene (Agura et al. (1992) Blood 79:602-609) supports the notion that histone deacetylases are integral components of PML-RARα mediated differentiation. […] This would explain why the inhibition of SMRT-mediated repression by TSA increases the retinoid sensitivity of NB4 cells.

[16] = tested on: NB4-R4 cells; assay: NBT reduction differentiation assay in retinoid-resistant NB4-R4 cells; assay type: cell-based, human; settings: three days
Procedure: as §5

CC1=C(/C=C/C(C)=C\C=C\C(C)=C\C(=O)O)C(C)(C)CCC1 [9-cis RA, 9-cis retinoic acid]
CD14 expression ([1]; suboptimal dose (10 nM) of 9-cis RA alone): modest stimulation

CC1=C(/C=C/C(C)=C/C=C/C(C)=C/C(=O)O)C(C)(C)CCC1 [ATRA, all-trans retinoic acid]
binding of RARα to GST-SMRT-IDII [2]: significantly reduced
amount of SMRT associated with PLZF-RARα [3]: largely unaffected
amount of SMRT which associates with RARα [4]: greatly reduced
dissociation of SMRT from RARα [5]: effectively dissociated
ATRA concentration required to dissociate SMRT from DNA-bound PML-RARα versus RAR [6]: substantially higher concentrations
ATRA concentration up to which cells are resistant [7]: up to 10^−7 M
binding of PLZF-RARα to GST-SMRT-PID2 [8]: ligand-insensitive
binding of PLZF-RARα to GST-SMRT-IDII [9]: significantly reduced
response of GAL-PLZF-RARα to ATRA (reporter activation) ([10]; ATRA alone, 36 hours, compared to GAL-RARα): poorly responded
effect on PML-RARα/SMRT complex [11]: only weakly affected
percentage of NBT-positive cells ([12]; 1 mM ATRA alone, parental NB4 cells): 23%

CCCC(=O)[O-].[Na+] [NaB, sodium butyrate]
RA activation of βRARE reporter in the presence of PLZF-RARα [13]: restore nearly full RA activation
reporter activation in combination with ATRA [10]: synergized with ATRA
relief of repression by GAL-PLZF-RARα [10]: relieved repression
relief of transcriptional inhibition by PML-RARα on βRARE reporter [14]: partially, relieves transcriptional inhibition

CC(/C=C/C(=O)NO)=C\[C@@H](C)C(=O)c1ccc(N(C)C)cc1 [TSA, Trichostatin A]
RA-induced expression of early differentiation marker CD18 [15]: strong stimulatory effect
percentage of NBT-positive cells ([16]; ATRA and 200 nM TSA): 18%
hormone-induced differentiation (NBT-positive cells) ([16]; TSA plus ATRA): partially restored hormone-induced differentiation
CD14 expression ([1]; 100 nM TSA alone): minimal effect
CD14 expression ([1]; TSA plus 10 nM 9-cis RA, compared with 100 nM 9-cis RA): dramatic enhancement
CD14 expression ([1]; TSA plus high dose (100 nM) 9-cis RA): enhanced
CD11b expression ([1]; combination of TSA and 9-cis RA): cooperative at both high and low doses
CD11b expression ([1]; low doses of TSA alone): partially activated gene expression
reporter activation in combination with ATRA [10]: synergized with ATRA
relief of repression by GAL-PLZF-RARα [10]: relieved repression
differentiation effect of ATRA (NBT-positive cells) ([12]; TSA 50 nM plus ATRA at all concentrations tested): dramatically enhanced
differentiation (NBT-positive cells) ([12]; TSA (50 nM) alone): no effect
